This is an account of results in patent publication US8952163B2, “Substituted hydroxamic acids and uses thereof” (Millennium Pharmaceuticals, Inc., priority 2010, dated 2015).

For the assay, the target named is T1, purified human HDAC6 (Homo sapiens, UniProt Q9UBN7).
T1 construct: purchased BPS Bioscience 5006
T1 sequence (Q9UBN7 1-1215): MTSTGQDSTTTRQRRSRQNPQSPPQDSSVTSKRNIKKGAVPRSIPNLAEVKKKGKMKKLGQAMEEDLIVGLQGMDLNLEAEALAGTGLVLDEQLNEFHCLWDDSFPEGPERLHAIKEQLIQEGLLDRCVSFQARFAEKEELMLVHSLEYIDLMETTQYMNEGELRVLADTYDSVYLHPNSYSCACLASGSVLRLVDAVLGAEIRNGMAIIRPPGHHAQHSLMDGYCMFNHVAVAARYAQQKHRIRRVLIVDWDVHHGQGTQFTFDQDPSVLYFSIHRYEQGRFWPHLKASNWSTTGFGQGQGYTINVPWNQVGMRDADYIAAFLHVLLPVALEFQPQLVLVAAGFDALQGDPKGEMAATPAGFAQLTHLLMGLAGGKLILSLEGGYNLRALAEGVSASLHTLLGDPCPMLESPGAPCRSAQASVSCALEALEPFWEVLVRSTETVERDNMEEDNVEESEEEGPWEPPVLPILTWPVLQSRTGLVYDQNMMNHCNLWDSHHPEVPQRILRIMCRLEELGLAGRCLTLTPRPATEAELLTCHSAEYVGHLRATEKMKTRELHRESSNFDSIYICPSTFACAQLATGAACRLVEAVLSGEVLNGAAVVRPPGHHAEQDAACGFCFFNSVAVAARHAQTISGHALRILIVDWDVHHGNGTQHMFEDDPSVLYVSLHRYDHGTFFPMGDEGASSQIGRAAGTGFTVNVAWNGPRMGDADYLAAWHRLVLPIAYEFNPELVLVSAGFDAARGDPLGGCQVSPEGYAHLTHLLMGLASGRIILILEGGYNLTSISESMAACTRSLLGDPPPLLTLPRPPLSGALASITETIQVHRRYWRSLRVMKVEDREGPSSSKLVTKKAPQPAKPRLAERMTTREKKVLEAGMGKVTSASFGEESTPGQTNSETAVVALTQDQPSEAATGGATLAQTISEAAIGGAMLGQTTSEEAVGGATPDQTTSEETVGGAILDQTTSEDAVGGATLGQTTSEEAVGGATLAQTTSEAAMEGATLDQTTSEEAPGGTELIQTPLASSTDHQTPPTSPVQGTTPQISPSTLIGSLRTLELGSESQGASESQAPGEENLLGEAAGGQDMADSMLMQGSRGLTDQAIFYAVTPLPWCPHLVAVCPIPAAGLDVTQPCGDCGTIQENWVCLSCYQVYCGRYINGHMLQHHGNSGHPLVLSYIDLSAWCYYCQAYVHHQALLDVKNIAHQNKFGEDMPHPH
The experiment in a line: HDAC6 Enzyme Assay. It counts as biochemical. As to conditions: test compound at 1.235 μM; substrate Ac-Arg-Gly-Lys(Ac)-AMC, 1 hour at 30° C.; read-out: Percent Inhibition at 1.235 μM. Here is the method: To measure the inhibition of HDAC6 activity, purified human HDAC6 (BPS Bioscience; Cat. No. 5006) is incubated with substrate Ac-Arg-Gly-Lys(Ac)-AMC peptide (Bachem Biosciences; Cat. No. I-1925) for 1 hour at 30° C. in the presence of test compounds or vehicle DMSO control. The reaction is stopped with the HDAC inhibitor trichostatin A (Sigma; Cat. No. T8552) and the amount of Arg-Gly-Lys-AMC generated is quantitated by digestion with trypsin (Sigma; Cat. No. T1426) and subsequent measurement of the amount of AMC released using a fluorescent plate reader (Pherastar, BMG Technologies) set at Ex 340 nm and Em 460 nm. Concentration response curves are generated by calculating the fluorescence increase in test compound-treated samples relative to DMSO-treated controls, and percentage inhibition values at a single concentration or enzyme inhibition (IC50) values are determined from those curves. One skilled in the art will appreciate that the values generated either as percentage inhibition at a single concentration or IC50 values are subject to experimental variation.
As to `CCCCOc1ccc(S(=O)(=O)N2CCc3ncc(C(=O)NO)cc3C2)cc1` [Compound I-57, 6-[(4-butoxyphenyl)sulfonyl]-N-hydroxy-5,6,7,8-tetrahydro-1,6-naphthyridine-3-carboxamide], the inhibition (in general, the drop in the measured response relative to a control, in per cent) at 1.235 µM is 94.1%.
In the case of `CCCCS(=O)(=O)N1CCc2ncc(C(=O)NO)cc2C1` [Compound I-58, 6-(butylsulfonyl)-N-hydroxy-5,6,7,8-tetrahydro-1,6-naphthyridine-3-carboxamide] it was 94.5%; in that of `O=C(NO)c1ccc2c(n1)CCN(S(=O)(=O)c1ccc(C(F)(F)F)cc1)C2` [Compound I-59, N-hydroxy-6-{[4-(trifluoromethyl)phenyl]sulfonyl}-5,6,7,8-tetrahydro-1,6-naphthyridine-2-carboxamide], 67.4%.
Regarding `CCCCOc1ccc(S(=O)(=O)N2CCc3nc(C(=O)NO)ccc3C2)cc1` [Compound I-60, 6-[(4-butoxyphenyl)sulfonyl]-N-hydroxy-5,6,7,8-tetrahydro-1,6-naphthyridine-2-carboxamide], the inhibition at 1.235 µM was 75.8%.
To `CCCCS(=O)(=O)N1CCc2nc(C(=O)NO)ccc2C1` [Compound I-61, 6-(butylsulfonyl)-N-hydroxy-5,6,7,8-tetrahydro-1,6-naphthyridine-2-carboxamide] belongs -3.95%; to `O=C(NO)c1cnc2c(c1)CN(S(=O)(=O)c1ccc(C(F)(F)F)cc1)CC2` [Compound I-62, N-hydroxy-6-{[4-(trifluoromethyl)phenyl]sulfonyl}-5,6,7,8-tetrahydro-1,6-naphthyridine-3-carboxamide], 94.7%.
